Source: paper PMC9747239, “State-selective modulation of heterotrimeric Gαs signaling with macrocyclic peptides” (Cell, 2022)
Where a SMILES comes first, the peptide text is derived from it. Bridges are numbered along the chain shown (N, C = ends). [ ]: non-standard residue; d: D form.

Columns and labels:
Gαs/GDP = molecular target: T1, Gαs/GDP (Homo sapiens, UniProt P63092); test: Bio-layer interferometry (BLI), GDP-bound Gαs; settings: read-out: KD, binding to Gαs/GDP
T1 construct: hexahistidine (N, cleaved yes); made in house; host or cells: E. coli BL21(DE3)
T1 sequence (P63092 with tags, fused parts or gaps isoform P63092-2): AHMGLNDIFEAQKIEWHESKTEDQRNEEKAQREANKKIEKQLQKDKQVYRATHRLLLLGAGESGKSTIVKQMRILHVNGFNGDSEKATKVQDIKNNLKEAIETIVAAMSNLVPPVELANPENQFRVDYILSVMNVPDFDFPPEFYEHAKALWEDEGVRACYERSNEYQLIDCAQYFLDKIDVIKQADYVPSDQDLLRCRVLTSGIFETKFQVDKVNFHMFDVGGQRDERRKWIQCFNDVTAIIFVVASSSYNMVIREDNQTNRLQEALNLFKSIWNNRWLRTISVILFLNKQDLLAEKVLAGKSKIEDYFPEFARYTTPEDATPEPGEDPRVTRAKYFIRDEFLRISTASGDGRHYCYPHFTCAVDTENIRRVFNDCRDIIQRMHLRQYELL
Description: BLI experiments were performed using an OctetRED384 instrument from ForteBio. All experiments were performed at 25°C using BLI buffer (10 mM HEPES pH 7.4, 150 mM NaCl, 1mM MgCl2, 0.05% Tween 20, 0.1% DMSO, 0.2 mM GNP or GDP). Cyclic peptides or Gα proteins were diluted to a series of concentrations (Final concentrations were indicated in Figures) in BLI buffer plus 10 μM Biotin. Assays were conducted in Greiner 384well, black, flat bottom polypropylene plates containing the protein solutions, BLI buffer plus 10 μM Biotin for dissociation, and serial dilutions of cyclic peptides to be tested.
Biotinylated proteins or cyclic peptides were immobilized on Streptavidin biosensors by dipping sensors into plate wells containing protein solutions at a concentration of 50–150 nM. Protein loading is around 2–3 nm. Cyclic peptide loading is around 0.2–0.3 nm. Sensors loaded with proteins or cyclic peptides were moved and dipped into wells with BLI buffer plus 10 μM Biotin to block unlabeled Streptavidin. […]
Raw kinetic data collected were processed with the Data Analysis software provided by the manufacturer using single reference subtraction in which buffer-only reference was subtracted (For GN13 analysis). […] The resulting data were analyzed based on a 1:1 binding model from which kon and koff values were obtained and then Kd values were calculated.

Gαs = molecular target: T2, Gαs (Homo sapiens, UniProt P63092); test: Steady-state GTPase assay, Gαs short isoform; format: biochemical; settings: read-out: IC50, inhibition of Gαs steady-state GTPase activity
T2 construct: vector His tag with thrombin/Drice site (removed); made in house; host or cells: E. coli BL21(DE3)
T2 sequence (P63092 with tags, fused parts or gaps isoform P63092-2): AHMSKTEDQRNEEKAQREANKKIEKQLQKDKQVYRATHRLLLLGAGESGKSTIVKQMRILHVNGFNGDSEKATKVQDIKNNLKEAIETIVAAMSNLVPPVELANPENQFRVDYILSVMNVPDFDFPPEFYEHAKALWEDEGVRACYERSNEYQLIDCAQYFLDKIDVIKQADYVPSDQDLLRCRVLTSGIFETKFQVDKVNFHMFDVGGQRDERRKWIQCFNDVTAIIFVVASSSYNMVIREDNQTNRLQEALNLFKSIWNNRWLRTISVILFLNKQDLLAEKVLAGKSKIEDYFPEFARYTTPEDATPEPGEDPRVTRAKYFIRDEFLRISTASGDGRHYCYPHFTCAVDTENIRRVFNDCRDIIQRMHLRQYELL
Description: (§1) WT Gαs (both short and long) was diluted to a 6 μM stock (4X) in GTPase assay buffer (20 mM HEPES 7.5, 150 mM NaCl, 1 mM MgCl2). The protein was 1:1 (v/v) diluted with 4X cyclic peptide stock (0, 1.56, 3.12, 6.25, 12.5, 25, 50, 100 μM) in GTPase assay buffer, and incubated at 37°C for an hour. The samples were then 1:1 (v/v) diluted with reaction buffer (20 mM HEPES 7.5, 150 mM NaCl, 1 mM MgCl2, and 1 mM GTP) and incubated at 37°C. After 30, 50, 70, 90 min, 50 μL of the sample was removed to measure the inorganic phosphate (Pi) concentration by PiColorLock Phosphate Detection kit. A standard curve was made using the 0.1 mM Pi stock in the kit. Final [cyclic peptide]: 0, 0.39, 0.78, 1.56, 3.12, 6.25, 12.5, 25 μM; Final [Gαs]: 1.5 μM; Final [GTP]: 500 μM.

long isoform of Gαs = molecular target: T3, long isoform of Gαs (Homo sapiens, UniProt P63092); test: Steady-state GTPase assay, Gαs long isoform; format: biochemical; settings: read-out: IC50, inhibition of steady-state GTPase activity of long isoform of Gαs
T3 construct: made in house; host or cells: E. coli BL21(DE3)
T3 sequence (P63092 whole entry, canonical isoform): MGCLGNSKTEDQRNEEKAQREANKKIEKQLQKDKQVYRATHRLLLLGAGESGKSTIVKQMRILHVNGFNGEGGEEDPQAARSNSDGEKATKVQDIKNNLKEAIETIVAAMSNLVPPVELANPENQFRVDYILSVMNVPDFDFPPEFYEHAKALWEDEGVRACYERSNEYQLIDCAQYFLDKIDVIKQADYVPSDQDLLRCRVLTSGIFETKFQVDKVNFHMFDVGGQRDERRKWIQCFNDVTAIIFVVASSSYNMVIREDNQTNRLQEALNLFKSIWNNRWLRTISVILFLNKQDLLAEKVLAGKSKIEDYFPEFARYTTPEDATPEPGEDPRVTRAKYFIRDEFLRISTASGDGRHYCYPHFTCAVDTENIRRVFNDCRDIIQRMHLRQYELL
Description: as §1

Gαs/GDP and Gβγ(C68S) = molecular target: T4, Gαs/GDP and Gβγ(C68S) (Homo sapiens, UniProt P63092); test: FRET based Gαs/Gβγ interaction assay; format: binding; settings: FRET, Gαs/GDP 4 nM, Gβ1/γ2(C68S) 2 nM; read-out: IC50, inhibition of Gαs/Gβγ interaction
T4 construct: hexahistidine (N, cleaved yes); made in house; host or cells: E. coli BL21(DE3) (Gαs); Sf9 insect cells (Gβ1γ2)

[1] = Chemical stability assay in DMEM with 10% FBS; format: in vitro ADME; settings: bovine, DMEM with 10% FBS (fetal bovine serum), 37 °C, values represent 95% confidence intervals, read-out: Half-life (hour), chemical stability in DMEM with 10% FBS
Description: (§2) These assays were conducted by Pharmaron Beijing CO., Ltd. Cyclic peptides working solutions were prepared at 10 μM in DMEM with 10% FBS (Avantor, Cat# 76,294–180) or human plasma (Pooled, Male & Female, BioIVT, Cat# HMN666664). The assays were performed in duplicate. Vials were incubated at 37 °C at 60 rpm in a water bath and taken at designated time points including 0, 480, 1080 and 1440 min. For each time point, the initiation of the reaction was staggered so all the time points were terminated with cold acetonitrile containing internal standards (IS, 100 nM alprazolam, 200 nM labetalol, 200 nM Imipramine and 2 μM ketoplofen) at the same time. Samples were vortexed then centrifuged at 4°C to remove proteins. The supernatants from centrifugation were diluted by ultra-pure H2O and used for LC-MS/MS analysis. All calculations were carried out using GraphPad Prism. Remaining percentages of parent compounds at each time point were estimated by determining the peak area ratios from extractedion chromatograms.

Plasma stability assay = format: in vitro ADME; settings: both sexes, pooled human plasma, 37 °C, values represent 95% confidence intervals, read-out: Half-life (hour), plasma stability
Description: as §2

`CC[C@H](C)[C@@H]1NC(=O)[C@H](CC(C)C)NC(=O)[C@@H](Cc2ccc(O)cc2)NC(=O)CSC[C@@H](C(=O)NCC(N)=O)NC(=O)[C@@H]2CCCN2C(=O)[C@H](CC(C)C)NC(=O)[C@H](CC(N)=O)NC(=O)[C@H](Cc2ccccc2)NC(=O)[C@H](C)NC(=O)[C@H](Cc2c[nH]c3ccccc23)NC(=O)[C@H](CCC(N)=O)NC(=O)[C@H](CCCNC(=N)N)NC(=O)[C@H](Cc2ccccc2)NC(=O)[C@H]([C@@H](C)O)NC1=O` [GD20] ({CH2CO}-[dY]LITFRQWAFNLPCG-NH2; thioether N-14) showed a Kd (Gαs/GDP) of 31.4 ± 0.7 nM, an IC50 (Gαs) of 1150 ± 160 nM and an IC50 (long isoform of Gαs) of 1320 ± 170 nM. For the same compound, the IC50 (Gαs/GDP and Gβγ(C68S)) was 18.4 ± 2 nM, the half-life at 10 μM [1] was > 142 h and the half-life at 10 μM (Plasma stability assay) was 16.4 to 27.1 h.
